Reference: ChEMBL document CHEMBL3593229, “Identification of a potent 5-phenyl-thiazol-2-ylamine-based inhibitor of FLT3 with activity against drug resistance-conferring point mutations” (Eur J Med Chem, 2015)

Tests used:
[1] = target: T1, Receptor-type tyrosine-protein kinase FLT3 (Homo sapiens, UniProt P36888); assay: biochemical; assay type: cell-based, Sf9
T1 sequence (P36888 whole entry): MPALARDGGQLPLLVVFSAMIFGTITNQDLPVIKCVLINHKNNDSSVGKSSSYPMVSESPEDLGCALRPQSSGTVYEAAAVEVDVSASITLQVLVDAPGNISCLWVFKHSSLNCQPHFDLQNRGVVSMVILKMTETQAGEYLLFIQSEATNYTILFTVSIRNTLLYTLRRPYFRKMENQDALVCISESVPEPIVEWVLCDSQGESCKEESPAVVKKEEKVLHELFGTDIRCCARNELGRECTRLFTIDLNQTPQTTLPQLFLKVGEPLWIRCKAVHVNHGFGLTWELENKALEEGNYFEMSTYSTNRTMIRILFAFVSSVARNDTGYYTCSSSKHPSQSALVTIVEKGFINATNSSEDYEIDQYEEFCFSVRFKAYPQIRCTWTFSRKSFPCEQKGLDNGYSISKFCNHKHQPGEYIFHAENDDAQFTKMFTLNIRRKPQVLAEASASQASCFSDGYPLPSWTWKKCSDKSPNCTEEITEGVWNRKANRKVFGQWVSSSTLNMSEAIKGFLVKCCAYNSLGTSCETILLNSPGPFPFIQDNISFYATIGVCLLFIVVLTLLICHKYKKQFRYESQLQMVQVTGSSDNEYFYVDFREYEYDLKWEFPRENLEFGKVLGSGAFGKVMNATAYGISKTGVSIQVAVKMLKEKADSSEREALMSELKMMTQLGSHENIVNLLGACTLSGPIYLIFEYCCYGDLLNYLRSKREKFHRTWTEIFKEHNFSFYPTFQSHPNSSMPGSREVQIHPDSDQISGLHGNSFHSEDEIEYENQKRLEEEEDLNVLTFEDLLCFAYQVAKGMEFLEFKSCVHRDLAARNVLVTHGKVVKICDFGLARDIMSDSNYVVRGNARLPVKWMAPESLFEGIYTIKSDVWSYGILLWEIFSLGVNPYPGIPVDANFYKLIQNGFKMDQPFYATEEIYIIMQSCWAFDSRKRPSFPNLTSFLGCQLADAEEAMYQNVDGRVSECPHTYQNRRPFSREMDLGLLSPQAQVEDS
Description: Inhibition of wild type GST-tagged FLT3 kinase domain (Y567 to S993) (unknown origin) expressed in baculovirus infected insect Sf9 cells using Her2 peptide as substrate after 4 hrs by Kinase-Glo assay

[2] = target: Proto-oncogene tyrosine-protein kinase Src (Homo sapiens) (UniProt P12931); assay: Inhibition of human SRC at 0.1 uM relative to control
Sequence of Proto-oncogene tyrosine-protein kinase Src (Homo sapiens) (P12931 2-536 limits assumed): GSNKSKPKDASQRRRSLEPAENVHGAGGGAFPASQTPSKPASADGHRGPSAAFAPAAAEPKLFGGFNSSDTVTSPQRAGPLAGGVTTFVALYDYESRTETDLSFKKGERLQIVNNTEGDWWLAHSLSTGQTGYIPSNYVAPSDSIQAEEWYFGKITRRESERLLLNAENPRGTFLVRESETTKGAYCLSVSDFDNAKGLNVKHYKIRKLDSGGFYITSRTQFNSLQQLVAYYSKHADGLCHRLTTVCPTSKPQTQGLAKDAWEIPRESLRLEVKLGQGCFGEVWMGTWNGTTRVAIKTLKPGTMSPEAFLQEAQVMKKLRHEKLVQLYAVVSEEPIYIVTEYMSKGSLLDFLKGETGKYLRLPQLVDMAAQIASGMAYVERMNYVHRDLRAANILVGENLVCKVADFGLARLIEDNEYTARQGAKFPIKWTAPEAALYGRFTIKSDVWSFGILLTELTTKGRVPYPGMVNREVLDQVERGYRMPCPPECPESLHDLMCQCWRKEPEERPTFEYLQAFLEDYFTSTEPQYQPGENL

[3] = target: Proto-oncogene tyrosine-protein kinase receptor Ret (Homo sapiens) (UniProt P07949); assay: Inhibition of human RET at 0.1 uM relative to control
[4] = target: Tyrosine-protein kinase Lck (Homo sapiens) (UniProt P06239); assay: Inhibition of human LCK at 0.1 uM relative to control
Sequence of Tyrosine-protein kinase Lck (Homo sapiens) (P06239 2-509 limits assumed): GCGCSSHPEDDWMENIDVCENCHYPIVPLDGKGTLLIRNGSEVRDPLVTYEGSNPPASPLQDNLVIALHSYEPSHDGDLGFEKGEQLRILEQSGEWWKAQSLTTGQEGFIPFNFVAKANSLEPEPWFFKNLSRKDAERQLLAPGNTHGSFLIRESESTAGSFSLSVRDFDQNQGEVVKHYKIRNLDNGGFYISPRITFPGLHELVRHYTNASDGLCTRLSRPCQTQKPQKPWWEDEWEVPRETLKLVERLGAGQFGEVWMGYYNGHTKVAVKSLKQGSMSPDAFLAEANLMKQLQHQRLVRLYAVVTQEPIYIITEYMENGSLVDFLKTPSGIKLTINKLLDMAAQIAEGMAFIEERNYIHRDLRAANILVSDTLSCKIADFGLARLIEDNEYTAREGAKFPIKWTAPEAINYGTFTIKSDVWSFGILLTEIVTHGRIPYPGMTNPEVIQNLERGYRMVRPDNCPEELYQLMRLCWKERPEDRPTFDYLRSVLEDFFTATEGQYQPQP

[5] = target: Tyrosine-protein kinase Lyn (Homo sapiens) (UniProt P07948); assay: Inhibition of human LYNB at 0.1 uM relative to control
Sequence of Tyrosine-protein kinase Lyn (Homo sapiens) (P07948 2-512 limits assumed): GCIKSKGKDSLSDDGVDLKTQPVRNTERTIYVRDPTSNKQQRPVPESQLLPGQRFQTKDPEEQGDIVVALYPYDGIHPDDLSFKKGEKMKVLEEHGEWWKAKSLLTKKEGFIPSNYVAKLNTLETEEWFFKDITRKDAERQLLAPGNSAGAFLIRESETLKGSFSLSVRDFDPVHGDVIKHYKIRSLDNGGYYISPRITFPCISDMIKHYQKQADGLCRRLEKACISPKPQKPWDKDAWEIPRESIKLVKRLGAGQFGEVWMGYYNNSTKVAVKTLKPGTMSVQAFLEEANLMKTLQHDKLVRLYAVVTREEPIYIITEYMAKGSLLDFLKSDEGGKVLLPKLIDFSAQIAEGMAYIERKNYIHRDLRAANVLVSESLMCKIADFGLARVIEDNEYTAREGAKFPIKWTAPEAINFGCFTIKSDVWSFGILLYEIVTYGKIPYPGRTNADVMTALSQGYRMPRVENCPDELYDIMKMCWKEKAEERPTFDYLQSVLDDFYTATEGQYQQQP

[6] = test system: Proto-oncogene tyrosine-protein kinase receptor Ret (Homo sapiens), P07949 [Y791F]; assay: Inhibition of human RET Y791F mutant at 0.1 uM relative to control
Sequence of Proto-oncogene tyrosine-protein kinase receptor Ret (Homo sapiens), P07949 [Y791F] (P07949 whole entry Y791F): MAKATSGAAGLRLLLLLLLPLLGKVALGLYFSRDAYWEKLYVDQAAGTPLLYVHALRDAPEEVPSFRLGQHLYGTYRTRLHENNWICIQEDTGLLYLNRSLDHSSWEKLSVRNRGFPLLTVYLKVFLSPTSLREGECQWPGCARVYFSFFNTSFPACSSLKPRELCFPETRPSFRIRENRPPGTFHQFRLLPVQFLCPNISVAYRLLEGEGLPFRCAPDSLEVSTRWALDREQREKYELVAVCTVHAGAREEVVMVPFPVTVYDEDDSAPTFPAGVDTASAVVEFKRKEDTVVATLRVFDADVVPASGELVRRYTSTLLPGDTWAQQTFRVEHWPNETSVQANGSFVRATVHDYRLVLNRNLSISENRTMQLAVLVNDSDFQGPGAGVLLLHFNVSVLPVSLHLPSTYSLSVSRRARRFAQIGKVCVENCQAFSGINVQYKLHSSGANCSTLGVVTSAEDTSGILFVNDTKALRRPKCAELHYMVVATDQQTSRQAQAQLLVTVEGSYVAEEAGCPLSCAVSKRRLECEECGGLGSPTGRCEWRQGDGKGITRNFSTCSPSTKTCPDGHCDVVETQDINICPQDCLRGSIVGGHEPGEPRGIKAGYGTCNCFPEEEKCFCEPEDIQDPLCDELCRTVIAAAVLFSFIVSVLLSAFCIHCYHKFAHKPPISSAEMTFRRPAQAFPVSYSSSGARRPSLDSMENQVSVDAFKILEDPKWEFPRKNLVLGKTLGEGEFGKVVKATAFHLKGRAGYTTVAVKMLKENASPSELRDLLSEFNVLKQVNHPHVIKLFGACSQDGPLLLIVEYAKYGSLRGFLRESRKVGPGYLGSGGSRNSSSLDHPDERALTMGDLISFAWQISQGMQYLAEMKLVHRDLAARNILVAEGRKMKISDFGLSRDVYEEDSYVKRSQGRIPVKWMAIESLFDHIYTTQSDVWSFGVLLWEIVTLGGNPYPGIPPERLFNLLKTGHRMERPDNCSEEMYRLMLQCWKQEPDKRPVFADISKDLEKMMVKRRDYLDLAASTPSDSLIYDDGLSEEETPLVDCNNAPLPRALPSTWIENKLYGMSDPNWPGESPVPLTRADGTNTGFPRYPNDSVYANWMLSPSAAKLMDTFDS

[7] = target: Dual specificity mitogen-activated protein kinase kinase 1 (Homo sapiens) (UniProt Q02750); assay: Inhibition of human MEK1 at 0.1 uM relative to control
[8] = target: Serine/threonine-protein kinase B-raf (Homo sapiens) (UniProt P15056); assay: Inhibition of human BRAF at 0.1 uM relative to control
[9] = target: Tyrosine-protein kinase receptor TYRO3 (Homo sapiens) (UniProt Q06418); assay: Inhibition of human TYRO3 at 0.1 uM relative to control
[10] = target: Ribosomal protein S6 kinase beta-1 (Homo sapiens) (UniProt P23443); assay: Inhibition of human RPS6KB1 at 0.1 uM relative to control
[11] = test system: RAF proto-oncogene serine/threonine-protein kinase (Homo sapiens), P04049 [Y340D,Y341D]; assay: Inhibition of human RAF1 Y340D/Y341D double mutant at 0.1 uM relative to control
Sequence of RAF proto-oncogene serine/threonine-protein kinase (Homo sapiens), P04049 [Y340D,Y341D] (P04049 whole entry Y340D/Y341D): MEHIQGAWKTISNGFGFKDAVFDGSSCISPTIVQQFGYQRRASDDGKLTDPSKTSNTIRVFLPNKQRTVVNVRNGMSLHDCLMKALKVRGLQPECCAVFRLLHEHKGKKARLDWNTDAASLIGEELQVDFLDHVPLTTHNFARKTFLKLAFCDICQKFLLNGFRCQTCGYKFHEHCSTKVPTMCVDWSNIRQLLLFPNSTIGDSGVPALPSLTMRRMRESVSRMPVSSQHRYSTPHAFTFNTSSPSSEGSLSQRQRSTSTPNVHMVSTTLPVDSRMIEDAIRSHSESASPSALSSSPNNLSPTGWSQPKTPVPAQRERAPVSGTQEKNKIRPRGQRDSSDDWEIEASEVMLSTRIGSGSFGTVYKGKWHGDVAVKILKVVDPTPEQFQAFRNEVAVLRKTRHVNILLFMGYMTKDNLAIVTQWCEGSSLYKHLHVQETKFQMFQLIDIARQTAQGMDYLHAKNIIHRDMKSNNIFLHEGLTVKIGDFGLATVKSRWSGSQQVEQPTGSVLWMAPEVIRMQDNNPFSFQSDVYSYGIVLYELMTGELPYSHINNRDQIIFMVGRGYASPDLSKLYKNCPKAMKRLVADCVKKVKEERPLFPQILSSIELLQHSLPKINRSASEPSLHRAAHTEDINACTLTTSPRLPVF

[12] = test system: Platelet-derived growth factor receptor alpha (Homo sapiens), P16234 [D842V]; assay: Inhibition of human PDGFRA D842V mutant at 0.1 uM relative to control
[13] = target: Serine/threonine-protein kinase Chk1 (Homo sapiens) (UniProt O14757); assay: Inhibition of human CHK1 at 0.1 uM relative to control
[14] = target: Mitogen-activated protein kinase 14 (Homo sapiens) (UniProt Q16539); assay: Inhibition of human MAPK14 at 0.1 uM relative to control
Sequence of Mitogen-activated protein kinase 14 (Homo sapiens) (Q16539 whole entry): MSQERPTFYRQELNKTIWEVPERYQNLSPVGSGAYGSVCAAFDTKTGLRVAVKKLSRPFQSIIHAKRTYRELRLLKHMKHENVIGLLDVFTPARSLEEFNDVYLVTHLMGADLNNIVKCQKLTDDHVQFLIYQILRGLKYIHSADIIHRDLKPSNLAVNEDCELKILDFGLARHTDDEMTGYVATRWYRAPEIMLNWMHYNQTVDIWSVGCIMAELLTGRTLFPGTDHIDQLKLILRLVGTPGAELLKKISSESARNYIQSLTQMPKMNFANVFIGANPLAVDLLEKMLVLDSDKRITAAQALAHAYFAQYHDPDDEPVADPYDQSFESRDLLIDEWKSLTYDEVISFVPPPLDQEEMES

[15] = target: Fibroblast growth factor receptor 1 (Homo sapiens) (UniProt P11362); assay: Inhibition of human FGFR1 at 0.1 uM relative to control
[16] = target: Serine/threonine-protein kinase Sgk2 (Homo sapiens) (UniProt Q9HBY8); assay: Inhibition of human SGK2 at 0.1 uM relative to control
[17] = target: Dual specificity protein kinase CLK1 (Homo sapiens) (UniProt P49759); assay: Inhibition of human CLK1 at 0.1 uM relative to control
[18] = target: Ribosomal protein S6 kinase alpha-3 (Homo sapiens) (UniProt P51812); assay: Inhibition of human RSK2 at 0.1 uM relative to control
[19] = target: Tyrosine-protein kinase JAK1 (Homo sapiens) (UniProt P23458); assay: Inhibition of human JAK1 at 0.1 uM relative to control
[20] = target: Receptor-type tyrosine-protein kinase FLT3 (Homo sapiens, UniProt P36888, ITD); assay: Inhibition of FLT3 ITD mutant (unknown origin) phosphorylation expressed in HEK293T cells preincubated for 1 hr followed by FLT3 ligand addition for 5 mins by Western blot analysis; assay type: cell-based, HEK-293T
[21] = target: Receptor-type tyrosine-protein kinase FLT3 (Homo sapiens, UniProt P36888, D835Y); assay: Inhibition of FLT3 ITD D835Y mutant (unknown origin) phosphorylation expressed in HEK293T cells preincubated for 1 hr followed by FLT3 ligand addition for 5 mins by Western blot analysis; assay type: cell-based, HEK-293T
[22] = Volume of distribution at steady state in Sprague-Dawley rat at 2 mg/kg, iv; assay type: ADME, organism-based; conditions: in vivo, read-out: Vdss
[23] = Volume of distribution at steady state in ICR mouse at 2 mg/kg, iv; assay type: ADME, organism-based; conditions: in vivo, read-out: Vdss
[24] = test system: Mus musculus; assay: Antitumor activity against human MOLM13 cells xenografted in SCID mouse assessed as increase in survival at 10 mg/kg, po qd administered on day 1 to 5 relative to vehicle-treated control; assay type: functional, MOLM-13
[25] = target: Vascular endothelial growth factor receptor 2 (Homo sapiens, UniProt P35968); conditions: 0.1 uM
Sequence of Vascular endothelial growth factor receptor 2 (P35968 whole entry): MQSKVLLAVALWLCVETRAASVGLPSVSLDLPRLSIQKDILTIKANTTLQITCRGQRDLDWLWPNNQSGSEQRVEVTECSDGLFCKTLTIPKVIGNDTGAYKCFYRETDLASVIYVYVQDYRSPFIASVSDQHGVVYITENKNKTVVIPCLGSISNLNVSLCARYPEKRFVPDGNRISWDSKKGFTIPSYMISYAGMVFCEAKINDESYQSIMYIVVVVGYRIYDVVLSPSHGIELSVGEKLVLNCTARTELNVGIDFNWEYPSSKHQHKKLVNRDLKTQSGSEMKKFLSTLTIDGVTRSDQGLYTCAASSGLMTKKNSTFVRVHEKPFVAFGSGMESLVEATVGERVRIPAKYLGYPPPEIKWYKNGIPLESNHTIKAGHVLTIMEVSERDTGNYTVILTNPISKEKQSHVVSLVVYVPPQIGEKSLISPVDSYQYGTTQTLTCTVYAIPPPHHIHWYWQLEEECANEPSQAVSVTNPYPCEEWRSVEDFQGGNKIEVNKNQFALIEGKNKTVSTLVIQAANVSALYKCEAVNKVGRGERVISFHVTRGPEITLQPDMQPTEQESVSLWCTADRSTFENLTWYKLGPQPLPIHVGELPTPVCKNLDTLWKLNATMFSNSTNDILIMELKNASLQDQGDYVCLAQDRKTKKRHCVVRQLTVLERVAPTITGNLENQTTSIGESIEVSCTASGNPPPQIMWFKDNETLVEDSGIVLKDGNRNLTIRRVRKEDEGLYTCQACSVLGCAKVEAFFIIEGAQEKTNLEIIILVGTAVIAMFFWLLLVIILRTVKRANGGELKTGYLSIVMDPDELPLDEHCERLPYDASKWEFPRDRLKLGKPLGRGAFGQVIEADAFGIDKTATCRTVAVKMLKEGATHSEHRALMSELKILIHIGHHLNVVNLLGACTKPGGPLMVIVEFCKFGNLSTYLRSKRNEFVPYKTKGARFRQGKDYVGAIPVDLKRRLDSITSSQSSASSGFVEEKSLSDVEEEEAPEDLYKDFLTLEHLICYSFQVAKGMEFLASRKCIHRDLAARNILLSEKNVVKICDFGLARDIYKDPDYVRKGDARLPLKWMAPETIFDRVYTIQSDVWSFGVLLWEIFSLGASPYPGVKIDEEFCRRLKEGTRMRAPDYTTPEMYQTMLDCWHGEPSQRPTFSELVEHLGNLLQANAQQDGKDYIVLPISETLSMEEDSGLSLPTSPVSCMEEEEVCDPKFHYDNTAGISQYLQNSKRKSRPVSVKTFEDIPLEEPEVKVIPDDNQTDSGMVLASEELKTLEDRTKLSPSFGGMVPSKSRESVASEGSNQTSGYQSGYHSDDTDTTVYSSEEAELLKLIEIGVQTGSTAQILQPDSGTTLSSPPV
Description: Inhibition of human KDR at 0.1 uM relative to control

[26] = test system: Receptor-type tyrosine-protein kinase FLT3 (Homo sapiens), P36888 [D835V]
[27] = animal or person; conditions: Mus musculus, 32D, po, read-out: TGI

Compound: CCc1cc(NC(=O)Nc2ccc(-c3cnc(Nc4cc(N5CCN(CC)CC5)nc(C)n4)s3)cc2)no1
- IC50 [1]: 38 nM
- inhibition [2]: 93%
- inhibition [3]: 95%
- inhibition [4]: 92%
- inhibition [5]: 88%
- inhibition [6]: 86%
- inhibition [7]: 41%
- inhibition [8]: 36%
- inhibition [9]: 28%
- inhibition [10]: 22%
- inhibition [11]: 21%
- inhibition [12]: 21%
- inhibition [13]: 17%
- inhibition [14]: 10%
- inhibition [15]: 10%
- inhibition [16]: 6%
- inhibition [17]: 5%
- inhibition [18]: -1%
- inhibition [19]: -8%
- IC50 [20]: 10 nM
- IC50 [21]: 10 nM
- Vd [22]: 8.2 L/kg
- Vd [23]: 21 L/kg
- Activity [24]: 45%
- inhibition [25]: 85%
- GI50 [26]: 4 nM
- inhibition in vivo at 10 mg/kg/day [27]: 68%
